Columns and labels:
Experiment in all cases: BLI, immobilised aptamer
[1] = tested on: JD-1 (DNA, aptamer) GAATGGACCCGGTATAATTCCCTCAAGAGTGCCAATTTCA; details: 2.7 mM KCl, 1.5 mM KH2PO4, 0.1 M NaCl, 20 mM Na2HPO4, 0.6 mM MgCl2, 0.9 mM CaCl2; selection buffer, pH 7.4; BLI response below 0.1 nm
[2] = tested on: JD2-RM3-27C28T (DNA, aptamer) AAAAGACTTAGTGTTGTCCTATGTATCT; details: 2.7 mM KCl, 1.5 mM KH2PO4, 0.1 M NaCl, 20 mM Na2HPO4, 0.6 mM MgCl2, 0.9 mM CaCl2; selection buffer, pH 7.4; same concentration as AZA-2
[3] = tested on: JD-2 (DNA, aptamer) AAAAGACTTAGTGTTGTCCTATGTATAAGTGCCAATTTCA; details: 2.7 mM KCl, 1.5 mM KH2PO4, 0.1 M NaCl, 20 mM Na2HPO4, 0.6 mM MgCl2, 0.9 mM CaCl2; selection buffer, pH 7.4; BLI response below 0.1 nm
[4] = tested on: JD3-RMM1 (DNA, aptamer) ACTAGGGCAAATCTATACAGTGCCAATTTCA; details: 2.7 mM KCl, 1.5 mM KH2PO4, 0.1 M NaCl, 20 mM Na2HPO4, 0.6 mM MgCl2, 0.9 mM CaCl2; selection buffer, pH 7.4; same concentration as AZA-2
[5] = tested on: JD-3 (DNA, aptamer) ACTAGTGCAAATCTATTCCTATGTTACAGTGCCAATTTCA; details: 2.7 mM KCl, 1.5 mM KH2PO4, 0.1 M NaCl, 20 mM Na2HPO4, 0.6 mM MgCl2, 0.9 mM CaCl2; selection buffer, pH 7.4; BLI response below 0.1 nm

Measured: binding

C=C1[C@@H](O)[C@@H]2O[C@]3(CC[C@H](/C=C/[C@@H](C)[C@@H]4CC(C)=C[C@@]5(O[C@H](C[C@@](C)(O)C(=O)O)CC[C@H]5O)O4)O3)CC[C@H]2O[C@@H]1[C@@H](O)C[C@H](C)[C@H]1O[C@@]2(CCCCO2)CC[C@H]1C
no: all assays above

— article PMC12112966 (2025)
